Results reported in patent US20240192237A1 (curantis UG, priority 2021, published 2024).

Assay: CBD trough plasma concentration in clinical trials CBD-CT1 and CBD-PT (LC-MS/MS)
Assay type: in vivo, patients
Conditions: for concentration at 7 day: Day 7, mean ± SD; for concentration at 14 day: Day 14, mean ± SD
Description: CBD was administered as an oral dose in a capsule formulation. The dose was increased during the first week from 200 mg/d to 800 mg/d (4×200 mg) and remained at this level for the rest of the study period. Due to serious unwanted effects, the dose could be reduced irreversibly to 600 mg/d starting with day 15. […] Dose applications, blood sampling, and assessment of PANSS followed the time schedule presented below. Additional treatment with 7.5 mg lorazepam per day during the whole study period was permitted. […]
Eighteen patients with a diagnosis of schizophrenia or schizophreniform disorder should be included in this trial per protocol. Because dropouts had to be replaced by a new patient a total number of 29 patients was randomized from February 2006 to June 2008. All randomized patients complied with all inclusion and exclusion criteria: age between 18 and 65, male and female, specific DSM-IV diagnoses, initial BPRS score≥36, no pregnancy or lactation phase, reliable contraception, no lack of accountability, no other relevant interferences, no treatment with depot-antipsychotics during the last three months, no severe internal or neurological illness, no QTc prolongation, no acute suicidality nor endangerment of others by the patient. […] Treatment lasted four weeks: the first period with two weeks of CBD or placebo treatment was followed by a second period with a two-week treatment of placebo or CBD, respectively. There was no washout period between the two treatments. […] The dose could be reduced irreversibly to 400 mg/d in case of serious unwanted effects. […] The PANSS was applied at baseline and day 14 and 28. Dose applications, blood sampling, and assessment of PANSS followed the time schedule presented below. Additional treatment with 5.0 mg lorazepam per day during the whole study period was permitted. […]
Therefore, documentation of time points when CBD was administered and when blood samples were taken was limited and not included in the electronic data. Information on possible dose reductions e.g. due to adverse events were missing in the electronic data, too. In cooperation with the PI, time points were inputted based on standard routines on the ward: application of study medication was set to 9:00 AM, 12:30 PM, 6:30 PM, and 10:00 PM, and blood sampling was scheduled at 8:45 AM. Assessment of the PANSS was also timed to 8:45 AM. The loss of accuracy by standardizing times was considered acceptable because the time interval between doses and blood sampling is long, so small deviations would have no major impact. Information on actually applied doses or reduced doses was updated in cooperation with a member of the PI's research group. Based on notes in archived patient's case report files and other paper-based documents the electronic data was adjusted.
After consultation with the PI, these values were replaced with 0 because all patients with positive drug screening were excluded from the clinical trial according to the study protocol. Baseline values>0 may result from errors in procedure e.g. when blood samples were taken after dose application. Therefore, the replacement is considered as being equivalent to an imputation of a predose measurement which was not conducted.

[1] = both sexes, human, plasma, oral capsule 600 mg/d, cross-over with placebo

C=C(C)[C@@H]1CCC(C)=C[C@H]1c1c(O)cc(CCCCC)cc1O [CBD, cannabidiol]
CBD plasma concentration, CBD-PT (Day 21, mean ± SD, cross-over, 0 PT patients under CBD treatment per table): 4.0 ± 1.2 µg/L
concentration at 28 day (both sexes, human, plasma, oral, 600 mg/d): 2.3 ± 1 ng/mL
concentration at 7 day (both sexes, human, plasma, oral, 600 mg/d, CBD-CT1 + CBD-PT pooled (only PT measured)): 14.1 ± 9.1 ng/mL
concentration at 21 day (both sexes, human, plasma, oral, 600 mg/d, Day 21, mean ± SD, pooled (only PT measured)): 4 ± 1.2 ng/mL
concentration at 7 day [1]: 14.1 ± 9.1 ng/mL
concentration at 14 day [1]: 19.3 ± 8.7 ng/mL
concentration at 14 day (human, plasma, oral, CBD-CT1 + CBD-PT pooled): 35.4 ± 22.6 ng/mL
concentration at 28 day (human, plasma, oral, Day 28, mean ± SD, CBD-CT1 + CBD-PT pooled): 29.2 ± 27.8 ng/mL
concentration at 14 day (human, plasma, oral capsule 800 mg/d (titrated from 200 mg/d in first week), trough): 50.5 ± 21.2 ng/mL
concentration at 28 day (human, plasma, Day 28, mean ± SD, oral capsule 800 mg/d, trough): 42.6 ± 24.7 ng/mL
